pIC50: −log10 of the molar value.

Test [1] addresses T1, NK1 receptor (Cavia porcellus, UniProt P30547).
T1 construct: evaluated in guinea pig lungs; tissue Keystone Biologicals, Cleveland, OH; host or cells: guinea pig lung
The test can be described thus: Antagonism of iodinated substance P binding to NK1 receptor, guinea pig lung. The following applies: for pIC50: NK-1 IC50, guinea pig lung, 125I-substance P, mean of several experiments. As to the method:
(§1) ANTAGONISM OF IODINATED TACHYKININ BINDING TO NK1 AND NK2
(§2) RECEPTORS BY PUTATIVE ANTAGONISTS
(§3) The NK1 receptor affinity of proposed tachykinin antagonists was evaluated in guinea pig lungs (Keystone Biologicals, Cleveland, OH), affinity for the NK2 receptor evaluated in HSKR-1 cells (which are mouse 3T3 fibroblasts expressing the human jejunal NK2 receptor) and NK-3 receptor affinity was evaluated in freshly collected guinea pig cerebral cortex. Tissues or cells were homogenized with a Polytron in 15 volumes of 50 mM Tris-HCl buffer (pH 7.4, 4° C.) and centrifuged. The pellet was resuspended in Tris-HCl buffer and was centrifuged; the pellet was washed twice by resuspension. The final pellet was resuspended at a concentration of 40 mg/ml for tissues (guinea pig lung and cerebral cortex) and 20 mg/ml for cells in incubation buffer and remained at room temperature for at least 15 min prior to use. Receptor binding was initiated by addition of 250 ul membrane preparation in duplicate to 0.1 nM of the following radioligands: ^125 I-Bolton Hunter Lys-3 labeled substance P; ^125 iodohistidyl-1-neurokinin A; and ^125 I-Bolton Hunter labeled Lys-4 eledoisin in a final volume of 500 ul of buffer containing 50 mM Tris-HCl (pH 7.4 at room temperature), 0.1% bovine serum albumin, 2 mM MnCl2, 40 ug/ml bacitracin, 4 μg/ml leupeptin and chymostatin, 1 μM thiorphan and various doses of the putative tachykinin antagonists. Incubations were performed at room temperature for 90 min (NK1 receptor assays) or 2 hr (NK2 and NK3 receptor assays); binding was terminated by addition of 50 mM Tris-HCl buffer (pH 7.4, 4° C.) and filtration under vacuum through GF/B filters presoaked with 0.1% polyethyleneimine (NK1 receptor assays) or 0.5% bovine serum albumin (NK2 and NK3 receptor assays). Filter bound radioactivity was quantitated in a gamma counter. Nonspecific binding was defined as binding in the presence of 1 μM substance P, neurokinin A, or eledoisin. Specific binding was calculated by subtracting nonspecific binding from total binding. Competition of iodinated SP, NKA, or eledoisin binding by test compounds or standards was expressed as a percentage of this maximum competition. IC50 values (concentration required to inhibit 50% of receptor binding) were generated for each of the test compounds by nonlinear regression using an iterative curve fitting program (GraphPAD Inplot, San Diego, Calif.).

The target in test [2] is T2, human jejunal NK2 receptor (Homo sapiens, UniProt P21452).
T2 construct: expressed in transfected cells; host or cells: HSKR-1 cells (mouse 3T3 fibroblasts)
T2 sequence (P21452 1-398): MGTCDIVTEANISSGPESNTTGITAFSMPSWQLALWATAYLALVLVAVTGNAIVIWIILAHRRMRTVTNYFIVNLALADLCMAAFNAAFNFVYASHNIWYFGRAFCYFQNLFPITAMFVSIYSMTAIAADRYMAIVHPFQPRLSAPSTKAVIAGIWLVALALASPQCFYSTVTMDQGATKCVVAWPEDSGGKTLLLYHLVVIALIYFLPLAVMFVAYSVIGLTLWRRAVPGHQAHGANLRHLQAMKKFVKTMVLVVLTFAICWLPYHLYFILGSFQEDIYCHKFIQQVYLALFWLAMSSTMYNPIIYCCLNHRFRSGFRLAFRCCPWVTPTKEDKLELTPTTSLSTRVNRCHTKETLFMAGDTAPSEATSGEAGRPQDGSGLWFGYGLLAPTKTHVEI
Briefly: Antagonism of iodinated neurokinin A binding to NK2 receptor, HSKR-1 cells (mouse 3T3 fibroblasts expressing the human jejunal NK2 receptor). The conditions noted are these: for pIC50: NK-2 IC50, HSKR-1 cells, 125I-neurokinin A, mean of several experiments. Here is the method:
as §1, §2, §3

T1 sequence (P30547 whole entry): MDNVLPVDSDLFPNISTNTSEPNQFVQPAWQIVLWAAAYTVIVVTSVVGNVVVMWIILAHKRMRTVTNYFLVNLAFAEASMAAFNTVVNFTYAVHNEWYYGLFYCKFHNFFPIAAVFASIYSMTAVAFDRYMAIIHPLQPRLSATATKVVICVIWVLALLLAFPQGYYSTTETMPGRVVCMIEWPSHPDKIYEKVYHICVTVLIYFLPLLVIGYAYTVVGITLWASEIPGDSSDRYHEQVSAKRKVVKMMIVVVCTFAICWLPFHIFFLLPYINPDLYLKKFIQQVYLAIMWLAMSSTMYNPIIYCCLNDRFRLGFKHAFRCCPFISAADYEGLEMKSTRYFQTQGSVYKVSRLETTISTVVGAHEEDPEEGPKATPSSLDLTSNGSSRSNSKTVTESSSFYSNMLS

For orientation: pIC50 means the negative decadic logarithm of the IC50, by convention in mol/L. Take `COc1cc(C(=O)N2CCC(CCN3CCC(C(N)=O)(c4ccccc4)CC3)(c3ccc(Cl)c(Cl)c3)C2)cc(OC)c1OC` (single isomer, unassigned; (+)) [Example 20, (+)-1-[2-[3-(3,4-dichloro-phenyl)-1-(3,4,5-trimethoxy-benzoyl)-pyrrolidin-3-yl]-ethyl]-4-phenylpiperidine-4-carboxylic acid amide]: the pIC50 in test [1] was 8.33; in test [2], 8.08.
For `COc1cc(C(=O)N2CCC(CCN3CCC(C(N)=O)(c4ccccc4)CC3)(c3ccc(Cl)c(Cl)c3)C2)cc(OC)c1OC.Cl` (single isomer, unassigned; (+)) [Example 20A, (+)-1-[2-[3-(3,4-dichloro-phenyl)-1-(3,4,5-trimethoxy-benzoyl)-pyrrolidin-3-yl]-ethyl]-4-phenyl-piperidine-4-carboxylic acid amide hydrochloride], in that order: 8.52 and 8.10.
Take `COc1cc(C(=O)N2CCC(CCN3CCC(C(N)=O)(c4ccccc4)CC3)(c3ccc(Cl)c(Cl)c3)C2)cc(OC)c1OC` (stereo not drawn) [Example 3, 1-[2-[3-(3,4-dichloro-phenyl)-1-(3,4,5-trimethoxy-benzoyl)-pyrrolidin-3-yl]-ethyl]-4-phenyl-piperidine-4-carboxylic acid amide]: the “affinity for NK1 receptors (in words)” value in test [1] (guinea pig lung) is “high affinity”. In test [2] (HSKR-1 cells), the “affinity for NK2 receptors (in words)” value is “high affinity”.

Source of the values: patent publication US5635510A, “Substituted pyrrolidin-3-yl-alkyl-piperidines” (Merrell Pharmaceuticals Inc., priority 1994, dated 1997).
